Experimental data published in publication PMC3066593, “Liposomal Tumor Targeting in Drug Delivery Utilizing MMP-2- and MMP-9-Binding Ligands” (Journal of Drug Delivery, 2010).
Positions of bridges follow the written chain, without caps; N, C: chain ends. Residues, ends and D or L forms follow the SMILES beside them.

How the values were obtained:
[1] = Hepatic accumulation of 125I-labelled peptides in normal mice; assay type: in vivo
Experimental: Radiolabeling of peptides and all liposomal formulations with iodine-125 (^125I) was performed using the IODOGEN (Pierce, Rockford, IL). The CTT2-PEG3400-DSPE peptide was labeled with ^125I using iodogen as a catalyst. 5 MBq of Na125I (Amersham, Buckinghamshire, England) in 0.5 ml PBS was added to a tube containing 10 μg dried iodogen and 100 μg CTT2-PEG3400-DSPE peptide construct. The mixture was incubated for 20 min at room temperature. The ^125I-bound particle fractions were purified by elution from PD-10 columns. The activity of the peptide was determined in a gamma counter (Cobra II, Packard Instruments).
Following single i.v. tracer doses of purified ^125I-CTT1-peptide (∼40 μg/mouse), ^125I-CTT2-peptide (∼40 μg/mouse), or CTT2-micelles (200 μg/mouse; 200 kBq), the percentage of the injected dose per gram of tissue (%ID/g) values, corrected for radioactive decay to the time of injection, were measured in tumor and major tissues/organs (heart, liver, kidney, lung, muscle, brain, spleen, and tumor) by sacrificing groups of normal mice or mice bearing serous ovarian hindleg xenografts (OV-90) at specified time points.

[2] = tested on: A2780 xenografts; assay: Therapeutic efficacy (survival) in subcutaneous A2780 xenografts; assay type: in vivo, NMRI nude mice; conditions: 9 mg/kg i.v.
Experimental: (§1) Therapeutic efficacy studies were conducted in subcutaneous A2780 xenografts using doxorubicin, administered as either CTT2-SL liposomes or Caelyx. Commercially available nonliposomal (“free”) drug (i.e., doxorubicin) and saline dilution buffer were used as treatment controls. A2780 ovarian cancer cells (5×10^6 in 100 μl PBS) were injected subcutaneously into the posterior flanks of NMRI nude mice (n = 40). Mice received i.v. bolus injections of CTT2-SL liposome, Caelyx, doxorubicin, and buffer. CTT2-SL liposomes were injected when tumor volumes reached 65 mm^3, while administration of Caelyx and doxorubicin to different xenograft mice was offset in time from CTT2-SL liposomes by 3 and 6 days, respectively. Doxorubicin, CTT2-SL liposomes, and Caelyx were injected at doses of 9 mg/kg each. Mouse body weights were monitored throughout the study period.

[3] = Mouse body weight during efficacy study; assay type: in vivo, NMRI nude mice; conditions: at day 9; 9 mg/kg doxorubicin equivalents at day 0, 3 and 6; mean of 9 mice; weights returned to initial levels one week later
Experimental: as §1

SMILES: CC(C)C[C@@H]1NC(=O)[C@H]([C@@H](C)O)NC(=O)[C@H](Cc2ccccc2)NC(=O)CNC(=O)[C@H](Cc2c[nH]c3ccccc23)NC(=O)[C@H](Cc2c[nH]cn2)NC(=O)[C@H]([C@@H](C)O)NC(=O)[C@H]([C@@H](C)O)NC(=O)[C@@H](NC(=O)CNC(=O)[C@H](Cc2c[nH]cn2)NC(=O)[C@H](Cc2ccc(O)cc2)NC(=O)[C@H](CC(N)=O)NC(=O)[C@H](CCC(=O)O)NC(=O)[C@H](CCCNC(=N)N)NC(=O)CN)CSSC[C@@H](C(N)=O)NC1=O [CTT2-peptide] (H-GRENYHGCTTHWGFTLC-NH2; disulfide 8-17)
- Hepatic clearance ([1]; normal mice, compared with CTT1-peptide): more rapid hepatic clearance

SMILES: CC(C)C[C@@H]1NC(=O)[C@H]([C@@H](C)O)NC(=O)[C@H](Cc2ccccc2)NC(=O)CNC(=O)[C@H](Cc2c[nH]c3ccccc23)NC(=O)[C@H](Cc2c[nH]cn2)NC(=O)[C@H]([C@@H](C)O)NC(=O)[C@H]([C@@H](C)O)NC(=O)[C@@H](N)CSSC[C@@H](C(=O)O)NC1=O [CTT1-peptide] (H-CTTHWGFTLC-OH; disulfide 1-10)
- Liver accumulation of peptide per gram of tissue relative to muscle ([1]; nontumor-bearing normal mice, n = 5, single i.v. tracer dose ~40 μg/mouse, 125I label, compared between CTT1- and CTT2-peptide (Figure 4)): greater liver accumulation

SMILES: COc1cccc2c1C(=O)c1c(O)c3c(c(O)c1C2=O)C[C@@](O)(C(=O)CO)C[C@@H]3O[C@H]1C[C@H](N)[C@H](O)[C@H](C)O1 [Doxorubicin, doxorubicin]
- Day at which live mice with tumor size exceeding 1000 mm^3 were sacrificed [2]: 24 days
- Maximum body weight loss [3]: about 10%
